The record followed here is ChEMBL document CHEMBL3808348, “Rational Design, Synthesis, and Biological Evaluation of 7-Azaindole Derivatives as Potent Focused Multi-Targeted Kinase Inhibitors” (J Med Chem, 2016).

A word on the inhibition: it is how much of the control response was suppressed. Usually IC50 stands for the concentration needed to halve the response being measured.

The target in assay [1] is Tyrosine-protein kinase SYK (Homo sapiens) (UniProt P43405). The settings on record: 100 nM.
Description: Inhibition of GST-tagged full length human recombinant SYK expressed in baculovirus using Fluorescein-Poly GT as substrate at 100 nM
Assay [2] deals with Serine/threonine-protein kinase PLK1 (Homo sapiens) (UniProt P53350). As to conditions: 100 nM.
Description: Inhibition of His-tagged full length human recombinant PLK1 expressed in baculovirus using at 100 nM
In assay [3] the target is MAP kinase-activated protein kinase 2 (Homo sapiens) (UniProt P49137). The settings on record: 100 nM.
Description: Inhibition of His-tagged full length human recombinant MAPKAPK2 expressed in Escherichia coli using Fluorescein-CREBtide as substrate at 100 nM
In assay [4] the target is NUAK family SNF1-like kinase 1 (Homo sapiens) (UniProt O60285). The settings on record: 100 nM.
Description: Inhibition of NUAK1 (unknown origin) at 100 nM
For assay [5], the system named is Epidermal growth factor receptor (Homo sapiens), P00533 [T790M]. The settings on record: 100 nM.
Assay [6] has as its target Protein kinase C epsilon type (Homo sapiens) (UniProt Q02156). As to conditions: 100 nM.
Description: Inhibition of full length human recombinant PKCepsilon expressed in baculovirus using Fluorescein-PKC as substrate at 100 nM
For assay [7], the target named is Macrophage colony-stimulating factor 1 receptor (Homo sapiens) (UniProt P07333). The settings on record: 100 nM.
Description: Inhibition of His-tagged human recombinant CSF1R (538 to 910 residues) expressed in baculovirus using Fluorescein-Poly GT as substrate at 100 nM
In assay [8] the target is Ephrin type-A receptor 1 (Homo sapiens) (UniProt P21709). The settings on record: 100 nM.
Description: Inhibition of GST-tagged human recombinant EPHA1 (568 to 976 residues) expressed in baculovirus using Fluorescein-Poly GT as substrate at 100 nM
In assay [9] the target is Phosphorylase b kinase gamma catalytic chain, liver/testis isoform (Homo sapiens) (UniProt P15735). As to conditions: 100 nM.
Description: Inhibition of human full length recombinant N-terminal GST-tagged PHKG2 expressed in baculovirus at 100 nM
For assay [10], the target named is Tyrosine-protein kinase Yes (Homo sapiens, UniProt P07947). Put plainly: Inhibition of GST-tagged full length human recombinant YES expressed in baculovirus using Fluorescein-Poly GT as substrate.
The target of assay [11] is Vascular endothelial growth factor receptor 2 (Homo sapiens) (UniProt P35968). The assay can be described thus: Inhibition of full length His-tagged human recombinant VEGFR2 expressed in baculovirus using Fluorescein-Poly GT as substrate at 100 nM.
The target in assay [12] is Protein kinase C alpha type (Homo sapiens) (UniProt P17252). The settings on record: 100 nM.
Description: Inhibition of full length human recombinant PKCalpha expressed in baculovirus using Fluorescein-PKC as substrate at 100 nM
The target in assay [13] is Fibroblast growth factor receptor 2 (Homo sapiens) (UniProt P21802). The assay can be described thus: Inhibition of His-tagged human recombinant FGFR2 (403 to 822 residues) expressed in baculovirus using Fluorescein-Poly GT as substrate at 100 nM.
Assay [14] has as its system Serine/threonine-protein kinase B-raf (Homo sapiens), P15056 [V600E]. Put plainly: Inhibition of full length GST-tagged human recombinant BRAF V600E mutant expressed in baculovirus using Fluorescein-MAP2K1 as substrate at 100 nM.
In assay [15] the target is Serine/threonine-protein kinase B-raf (Homo sapiens, UniProt P15056, V600E). The assay can be described thus: Inhibition of full length GST-tagged human recombinant BRAF V600E mutant expressed in baculovirus using Fluorescein-MAP2K1 as substrate.
Serine/threonine-protein kinase B-raf, sequence (P15056 2-766 V600E limits assumed): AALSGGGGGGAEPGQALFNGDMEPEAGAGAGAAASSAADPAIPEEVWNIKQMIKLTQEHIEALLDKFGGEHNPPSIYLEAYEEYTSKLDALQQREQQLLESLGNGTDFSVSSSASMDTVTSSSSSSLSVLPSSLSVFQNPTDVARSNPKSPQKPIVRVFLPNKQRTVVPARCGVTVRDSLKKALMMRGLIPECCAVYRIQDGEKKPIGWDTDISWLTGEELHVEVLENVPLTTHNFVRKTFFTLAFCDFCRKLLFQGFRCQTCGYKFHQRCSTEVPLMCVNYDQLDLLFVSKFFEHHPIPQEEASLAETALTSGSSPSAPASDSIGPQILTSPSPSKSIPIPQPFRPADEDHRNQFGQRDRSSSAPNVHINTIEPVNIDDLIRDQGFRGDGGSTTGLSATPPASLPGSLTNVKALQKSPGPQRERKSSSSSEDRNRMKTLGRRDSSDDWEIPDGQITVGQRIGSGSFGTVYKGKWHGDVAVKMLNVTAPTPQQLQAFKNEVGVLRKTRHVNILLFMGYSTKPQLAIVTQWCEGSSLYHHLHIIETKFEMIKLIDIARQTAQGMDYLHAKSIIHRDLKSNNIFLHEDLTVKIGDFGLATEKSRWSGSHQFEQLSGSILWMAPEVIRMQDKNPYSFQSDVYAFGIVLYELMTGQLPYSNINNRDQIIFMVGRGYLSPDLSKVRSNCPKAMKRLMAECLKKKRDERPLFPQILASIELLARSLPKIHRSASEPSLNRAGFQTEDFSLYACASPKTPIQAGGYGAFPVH

Phosphorylase b kinase gamma catalytic chain, liver/testis isoform (Homo sapiens), sequence (P15735 whole entry, canonical isoform): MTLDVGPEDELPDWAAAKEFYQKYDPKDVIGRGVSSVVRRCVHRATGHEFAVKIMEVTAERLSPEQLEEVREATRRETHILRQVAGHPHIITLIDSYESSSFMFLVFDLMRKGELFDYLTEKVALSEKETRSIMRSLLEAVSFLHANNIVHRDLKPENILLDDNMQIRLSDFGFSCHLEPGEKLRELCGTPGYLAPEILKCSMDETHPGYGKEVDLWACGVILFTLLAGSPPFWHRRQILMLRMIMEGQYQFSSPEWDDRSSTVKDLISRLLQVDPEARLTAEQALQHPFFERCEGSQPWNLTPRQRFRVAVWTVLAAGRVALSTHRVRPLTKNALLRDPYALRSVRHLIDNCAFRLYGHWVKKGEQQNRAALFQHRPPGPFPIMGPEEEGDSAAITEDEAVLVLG
Macrophage colony-stimulating factor 1 receptor (Homo sapiens), sequence (P07333 whole entry): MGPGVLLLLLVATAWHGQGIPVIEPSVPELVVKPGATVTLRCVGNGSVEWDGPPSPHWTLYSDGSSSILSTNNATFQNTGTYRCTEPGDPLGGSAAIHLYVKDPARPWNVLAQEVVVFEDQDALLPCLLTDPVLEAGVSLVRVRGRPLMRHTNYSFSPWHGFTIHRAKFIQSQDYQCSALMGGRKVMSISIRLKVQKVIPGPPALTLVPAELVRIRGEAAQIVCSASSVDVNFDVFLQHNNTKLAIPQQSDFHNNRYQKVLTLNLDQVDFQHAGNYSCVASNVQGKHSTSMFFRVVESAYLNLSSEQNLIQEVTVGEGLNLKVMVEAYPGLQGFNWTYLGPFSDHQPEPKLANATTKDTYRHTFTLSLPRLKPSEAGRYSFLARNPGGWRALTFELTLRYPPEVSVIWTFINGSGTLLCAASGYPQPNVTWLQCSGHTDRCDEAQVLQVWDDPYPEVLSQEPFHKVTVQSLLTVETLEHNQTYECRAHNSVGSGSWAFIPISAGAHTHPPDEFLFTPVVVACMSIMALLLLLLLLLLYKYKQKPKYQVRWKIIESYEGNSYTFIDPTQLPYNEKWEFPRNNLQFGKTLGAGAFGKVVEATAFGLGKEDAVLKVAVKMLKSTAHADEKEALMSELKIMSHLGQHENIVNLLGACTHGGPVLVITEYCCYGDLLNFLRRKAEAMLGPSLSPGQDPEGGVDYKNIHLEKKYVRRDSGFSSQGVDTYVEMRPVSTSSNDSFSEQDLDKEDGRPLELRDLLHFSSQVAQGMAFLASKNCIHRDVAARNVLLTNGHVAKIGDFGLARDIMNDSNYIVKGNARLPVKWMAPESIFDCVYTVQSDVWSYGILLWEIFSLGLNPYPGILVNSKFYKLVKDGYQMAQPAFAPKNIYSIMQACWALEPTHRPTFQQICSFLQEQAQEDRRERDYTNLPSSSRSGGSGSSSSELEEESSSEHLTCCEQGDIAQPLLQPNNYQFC
Serine/threonine-protein kinase B-raf (Homo sapiens), P15056 [V600E], sequence (P15056 whole entry V600E): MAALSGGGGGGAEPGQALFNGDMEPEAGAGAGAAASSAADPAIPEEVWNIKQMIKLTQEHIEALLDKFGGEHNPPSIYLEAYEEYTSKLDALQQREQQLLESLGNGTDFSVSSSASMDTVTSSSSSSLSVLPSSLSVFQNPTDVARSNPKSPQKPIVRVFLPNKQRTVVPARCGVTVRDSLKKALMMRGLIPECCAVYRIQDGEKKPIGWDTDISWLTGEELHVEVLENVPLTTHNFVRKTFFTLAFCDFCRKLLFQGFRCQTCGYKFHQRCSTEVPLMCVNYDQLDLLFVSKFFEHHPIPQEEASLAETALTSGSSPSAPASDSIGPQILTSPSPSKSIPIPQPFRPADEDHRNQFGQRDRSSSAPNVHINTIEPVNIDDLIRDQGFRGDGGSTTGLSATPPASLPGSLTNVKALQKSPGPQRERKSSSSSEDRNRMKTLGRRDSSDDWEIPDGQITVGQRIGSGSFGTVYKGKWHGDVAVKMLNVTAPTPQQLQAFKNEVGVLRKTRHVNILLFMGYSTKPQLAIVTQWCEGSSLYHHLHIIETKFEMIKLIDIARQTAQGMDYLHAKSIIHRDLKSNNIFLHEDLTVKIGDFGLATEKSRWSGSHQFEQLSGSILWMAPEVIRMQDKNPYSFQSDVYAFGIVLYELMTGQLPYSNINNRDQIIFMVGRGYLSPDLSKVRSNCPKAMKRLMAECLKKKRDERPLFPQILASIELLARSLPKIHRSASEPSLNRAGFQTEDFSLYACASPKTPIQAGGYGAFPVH
NUAK family SNF1-like kinase 1 (Homo sapiens), sequence (O60285 whole entry): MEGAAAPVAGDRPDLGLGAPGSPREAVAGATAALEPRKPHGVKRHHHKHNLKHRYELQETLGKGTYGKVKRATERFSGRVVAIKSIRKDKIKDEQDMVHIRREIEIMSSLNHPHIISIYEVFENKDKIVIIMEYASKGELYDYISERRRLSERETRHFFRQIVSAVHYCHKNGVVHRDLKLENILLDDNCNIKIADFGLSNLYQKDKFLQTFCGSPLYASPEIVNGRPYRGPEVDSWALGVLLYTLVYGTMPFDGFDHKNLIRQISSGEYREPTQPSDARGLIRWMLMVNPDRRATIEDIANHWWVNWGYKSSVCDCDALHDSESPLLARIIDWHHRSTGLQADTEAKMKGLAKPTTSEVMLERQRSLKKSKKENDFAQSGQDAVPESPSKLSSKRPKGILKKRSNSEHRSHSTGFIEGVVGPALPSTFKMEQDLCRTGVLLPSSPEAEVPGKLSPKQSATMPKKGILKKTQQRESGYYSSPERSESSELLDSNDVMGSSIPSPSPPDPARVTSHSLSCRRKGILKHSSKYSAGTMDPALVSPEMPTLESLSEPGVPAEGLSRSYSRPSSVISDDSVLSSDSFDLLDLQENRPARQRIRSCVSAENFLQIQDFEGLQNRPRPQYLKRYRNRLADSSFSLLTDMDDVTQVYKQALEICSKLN
Ephrin type-A receptor 1 (Homo sapiens), sequence (P21709 whole entry, canonical isoform): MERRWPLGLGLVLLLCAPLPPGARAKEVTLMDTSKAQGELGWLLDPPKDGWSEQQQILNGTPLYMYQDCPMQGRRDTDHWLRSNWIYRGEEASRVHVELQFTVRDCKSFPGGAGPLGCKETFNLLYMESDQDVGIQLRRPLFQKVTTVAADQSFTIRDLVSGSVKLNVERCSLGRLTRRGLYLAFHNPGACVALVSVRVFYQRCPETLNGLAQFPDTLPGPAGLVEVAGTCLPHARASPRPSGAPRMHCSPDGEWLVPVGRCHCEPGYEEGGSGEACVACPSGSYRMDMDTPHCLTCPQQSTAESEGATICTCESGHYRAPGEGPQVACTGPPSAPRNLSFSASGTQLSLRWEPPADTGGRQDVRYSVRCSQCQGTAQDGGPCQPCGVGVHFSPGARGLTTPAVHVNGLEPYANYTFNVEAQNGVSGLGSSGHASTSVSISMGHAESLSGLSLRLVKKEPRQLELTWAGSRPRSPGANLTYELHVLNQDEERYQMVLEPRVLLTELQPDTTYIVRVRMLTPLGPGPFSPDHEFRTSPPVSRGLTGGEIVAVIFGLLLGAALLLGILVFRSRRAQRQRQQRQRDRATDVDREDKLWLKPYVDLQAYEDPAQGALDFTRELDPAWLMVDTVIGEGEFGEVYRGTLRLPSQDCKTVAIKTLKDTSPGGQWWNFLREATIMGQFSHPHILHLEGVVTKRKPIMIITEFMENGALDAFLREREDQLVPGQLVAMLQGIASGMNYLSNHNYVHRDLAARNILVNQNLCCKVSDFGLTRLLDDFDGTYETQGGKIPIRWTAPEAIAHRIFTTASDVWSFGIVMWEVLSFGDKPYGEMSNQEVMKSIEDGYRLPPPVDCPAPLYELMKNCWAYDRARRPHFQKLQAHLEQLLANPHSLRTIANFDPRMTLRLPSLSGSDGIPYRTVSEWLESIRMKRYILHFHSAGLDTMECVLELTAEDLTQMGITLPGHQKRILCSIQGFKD
MAP kinase-activated protein kinase 2 (Homo sapiens), sequence (P49137 whole entry, looked up): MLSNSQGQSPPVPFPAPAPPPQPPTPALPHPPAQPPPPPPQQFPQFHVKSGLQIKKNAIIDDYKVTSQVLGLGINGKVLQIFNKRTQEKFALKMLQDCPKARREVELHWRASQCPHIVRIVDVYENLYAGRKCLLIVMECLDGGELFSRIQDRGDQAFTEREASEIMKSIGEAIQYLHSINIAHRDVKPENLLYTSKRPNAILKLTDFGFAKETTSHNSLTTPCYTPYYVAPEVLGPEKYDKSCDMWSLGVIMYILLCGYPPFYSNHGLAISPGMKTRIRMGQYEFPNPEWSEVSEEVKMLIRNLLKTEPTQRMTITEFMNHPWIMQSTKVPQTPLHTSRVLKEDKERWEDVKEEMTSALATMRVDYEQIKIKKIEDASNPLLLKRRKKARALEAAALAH

As for `COC(=O)c1cc2cc(NCc3cc(NC(=O)c4cc(-n5cnc(C)c5)cc(C(F)(F)F)c4)ccc3C)cnc2[nH]1`, the inhibition in assay [1], in assay [2], in assay [3], in assay [4], in [5] and in assay [6] was below 40% each time. The inhibition was below 40% in assay [7]; below 40% in [8]; below 40% in [9]; 46% in assay [11]; below 40% in [12]; 52% in assay [13]. The inhibition in [14] is above 80%. Moreover, the IC50 came to 44 nM in assay [10] and 10 nM in assay [15].
